Drawing on US20220289727A1, “ENZYME INHIBITORS” (KALVISTA PHARMACEUTICALS LIMITED, priority 2019, published 2022), this text covers IC50 for 52 compounds.

In this test the target is T1, Human Factor XIIa (Homo sapiens, UniProt P00748).
T1 construct: Human Factor XIIa (Enzyme Research Laboratories) was incubated; purchased Enzyme Research Laboratories
T1 sequence (P00748 373-615 limits assumed): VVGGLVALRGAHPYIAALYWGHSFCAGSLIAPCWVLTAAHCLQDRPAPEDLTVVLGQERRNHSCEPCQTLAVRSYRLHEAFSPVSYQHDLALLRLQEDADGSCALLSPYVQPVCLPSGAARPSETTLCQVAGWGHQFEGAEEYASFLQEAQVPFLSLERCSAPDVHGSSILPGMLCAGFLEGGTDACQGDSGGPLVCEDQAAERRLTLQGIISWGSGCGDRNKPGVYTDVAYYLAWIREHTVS
T1 sequence (P00748 20-372 partner limits assumed): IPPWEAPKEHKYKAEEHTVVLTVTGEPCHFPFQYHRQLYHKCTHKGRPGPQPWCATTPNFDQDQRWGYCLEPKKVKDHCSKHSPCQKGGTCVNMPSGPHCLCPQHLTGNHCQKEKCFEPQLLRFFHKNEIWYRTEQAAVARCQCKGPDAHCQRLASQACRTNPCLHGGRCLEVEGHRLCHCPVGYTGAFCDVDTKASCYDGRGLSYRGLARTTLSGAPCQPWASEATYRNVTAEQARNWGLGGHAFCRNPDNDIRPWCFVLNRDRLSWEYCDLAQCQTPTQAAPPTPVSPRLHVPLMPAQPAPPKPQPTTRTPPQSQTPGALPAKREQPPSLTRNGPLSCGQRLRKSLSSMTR
Briefly: Determination of FXIIa inhibitory activity in vitro (fluorogenic substrate H-DPro-Phe-Arg-AFC). The settings on record: 25° C., residual enzyme activity (initial rate). It counts as biochemical.
The term IC50 denotes the point on the concentration scale where inhibition reaches its midpoint. The compound `CC(=O)Nc1cccc(NCc2sc(C(=O)NCc3ccc4c(N)nccc4c3)cc2Cl)c1` [Example 2.55] had an IC50 of 10 to 40 µM.

Consider `CC(C)N(CCNCc1sc(C(=O)NCc2ccc3c(N)nccc3c2)cc1Cl)C(C)C` [Example 2.56], for which the IC50 was 3 to 10 µM.

Regarding `Nc1nccc2cc(CNC(=O)c3cc(Cl)c(CNCc4ccc(CN5CCCC5=O)cc4)s3)ccc12` [Example 2.57], the half-inhibitory concentration (IC50) fell in the range of 3 to 10 µM.

Turning to `Nc1nccc2cc(CNC(=O)c3cc(Cl)c(CN4CCN(Cc5cccnc5)CC4)s3)ccc12` [Example 5.01], the IC50 lay within 10 to 40 µM.

Regarding `CN1CCCN(Cc2sc(C(=O)NCc3ccc4c(N)nccc4c3)cc2Cl)CC1` [Example 5.02], the IC50 lay in the range of 3 to 10 µM.

Compound `Nc1nccc2cc(CNC(=O)c3cc(Cl)c(CN4CCOCC4)s3)ccc12` [Example 5.03] showed an IC50 of 10 to 40 µM.

`CN1CCN(Cc2sc(C(=O)NCc3ccc4c(N)nccc4c3)cc2Cl)CC1` [Example 5.04] registered an IC50 of 10 to 40 µM.

As for `CC(=O)N1CCN(Cc2sc(C(=O)NCc3ccc4c(N)nccc4c3)cc2Cl)CC1` [Example 5.05], the IC50 is 10 to 40 µM.

On to `CC(C)N1CCN(Cc2sc(C(=O)NCc3ccc4c(N)nccc4c3)cc2Cl)CC1` [Example 5.06], for which the IC50 was 10 to 40 µM.

In turn, `CS(=O)(=O)N1CCN(Cc2sc(C(=O)NCc3ccc4c(N)nccc4c3)cc2Cl)CC1` [Example 5.07] had an IC50 of 10 to 40 µM.

Regarding `Nc1nccc2cc(CNC(=O)c3cc(Cl)c(CN4CCC(F)(F)C4)s3)ccc12` [Example 5.08], the IC50 fell in the range of 10 to 40 µM.

On to `Nc1nccc2cc(CNC(=O)c3cc(Cl)c(CN4Cc5ccccc5C4)s3)ccc12` [Example 5.09], for which the IC50 fell in the range of 10 to 40 µM.

The compound `Nc1nccc2cc(CNC(=O)c3cc(Cl)c(CN4CCc5ncccc5C4)s3)ccc12` [Example 5.10] showed an IC50 of 3 to 10 µM.

`Nc1nccc2cc(CNC(=O)c3cc(Cl)c(CN4CC(O)C4)s3)ccc12` [Example 5.11] showed an IC50 of 10 to 40 µM.

For the compound `Nc1nccc2cc(CNC(=O)c3cc(Cl)c(CN4CCC(CCN5CCCC5=O)CC4)s3)ccc12` [Example 5.13], the IC50 was in the range of 10 to 40 µM.

The compound `Nc1nccc2cc(CNC(=O)c3cc(Cl)c(CN4CCC5(CC4)OCCO5)s3)ccc12` [Example 5.14] returned an IC50 of 10 to 40 µM.

`Nc1nccc2cc(CNC(=O)c3cc(Cl)c(CN4CCN(c5cnccn5)CC4)s3)ccc12` [Example 5.15]: the IC50 fell in the range of 10 to 40 µM.

The compound `CS(=O)(=O)c1ccc(OCc2sc(C(=O)NCc3ccc4c(N)nccc4c3)cc2Cl)cc1` [Example 7.01] showed an IC50 of 10 to 40 µM.

In turn, `Cn1cnc2cc(OCc3sc(C(=O)NCc4ccc5c(N)nccc5c4)cc3Cl)ccc21` [Example 7.02] showed an IC50 of 10 to 40 µM.

Compound `Nc1nccc2cc(CNC(=O)c3cc(Cl)c(COc4ccc(N5CCNCC5)cc4)s3)ccc12` [Example 7.03, N-((1-Aminoisoquinolin-6-yl)methyl)-4-chloro-5-((4-(piperazin-1-yl)phenoxy)methyl)thiophene-2-carboxamide] registered an IC50 of 1 to 3 µM.

Regarding `CC(C)NC(=O)N(C)c1ccc(OCc2sc(C(=O)NCc3ccc4c(N)nccc4c3)cc2Cl)cc1` [Example 7.04], the IC50 lay within 10 to 40 µM.

In turn, `Nc1nccc2cc(CNC(=O)c3cc(Cl)c(COc4cccc(N5CCNCC5)c4)s3)ccc12` [Example 7.05] returned an IC50 of 1 to 3 µM.

As for `Nc1nccc2cc(CNC(=O)c3cc(Cl)c(COCCN4CCOCC4)s3)ccc12` [Example 7.06], the IC50 was 3 to 10 µM.

Regarding `Nc1nccc2cc(CNC(=O)c3cc(Cl)c(COCCN4CCCCC4)s3)ccc12` [Example 7.07], the IC50 fell in the range of 3 to 10 µM.

Consider `CN1CCC(COCc2sc(C(=O)NCc3ccc4c(N)nccc4c3)cc2Cl)CC1` [Example 7.08], for which the IC50 was 1 to 3 µM.

Regarding `Nc1nccc2cc(CNC(=O)c3cc(Cl)c(COCCN4CCS(=O)(=O)CC4)s3)ccc12` [Example 7.09], the IC50 was in the range of 3 to 10 µM.

Compound `Nc1nccc2cc(CNC(=O)c3cc(Cl)c(COCc4ccccn4)s3)ccc12` [Example 7.10] showed an IC50 of 10 to 40 µM.

`CS(=O)(=O)c1cccc(COCc2sc(C(=O)NCc3ccc4c(N)nccc4c3)cc2Cl)c1` [Example 7.11] returned an IC50 of 10 to 40 µM.

The compound `Nc1nccc2cc(CNC(=O)c3cc(Cl)c(COCCC4CCOCC4)s3)ccc12` [Example 7.12] came in with an IC50 of 10 to 40 µM.

As for `Nc1nccc2cc(CNC(=O)c3cc(Cl)c(COCC4CCOCC4)s3)ccc12` [Example 7.13], the IC50 was in the range of 3 to 10 µM.

In turn, `Nc1nccc2cc(CNC(=O)c3cc(Cl)c(COCCN4CCCC4)s3)ccc12` [Example 7.14] gave an IC50 of 3 to 10 µM.

In turn, `CN(C)CCOCc1sc(C(=O)NCc2ccc3c(N)nccc3c2)cc1Cl` [Example 7.15] displayed a half-maximal inhibitory concentration (IC50) of 3 to 10 µM.

The compound `Nc1nccc2cc(CNC(=O)c3cc(Cl)c(COCCn4ccnc4)s3)ccc12` [Example 7.16] displayed an IC50 of 3 to 10 µM.

In the case of `CN(CCOCc1sc(C(=O)NCc2ccc3c(N)nccc3c2)cc1Cl)Cc1ccccc1` [Example 7.17], the IC50 lay within 10 to 40 µM.

`Nc1nccc2cc(CNC(=O)c3cc(Cl)c(COCC4CCN(Cc5ccccc5)CC4)s3)ccc12` [Example 7.18] yielded an IC50 of 10 to 40 µM.

As for `Nc1nccc2cc(CNC(=O)c3cc(Cl)c(COCc4cccnc4)s3)ccc12` [Example 7.19], the IC50 lay in the range of 3 to 10 µM.

`Nc1nccc2cc(CNC(=O)c3cc(Cl)c(COCc4ccncc4)s3)ccc12` [Example 7.20]: the IC50 was in the range of 3 to 10 µM.

The compound `Nc1nccc2cc(CNC(=O)c3cc(Cl)c(COCc4cncnc4)s3)ccc12` [Example 7.21] came in with an IC50 of 3 to 10 µM.

On to `CCN(CC)CCCOCc1sc(C(=O)NCc2ccc3c(N)nccc3c2)cc1Cl` [Example 7.22], for which the IC50 lay within 1 to 3 µM.

`Nc1nccc2cc(CNC(=O)c3cc(Cl)c(COCCCN4CCCCC4)s3)ccc12` [Example 7.23] displayed an IC50 of 1 to 3 µM.

`Nc1nccc2cc(CNC(=O)c3cc(Cl)c(COCCCc4ccncc4)s3)ccc12` [Example 7.24] came in with an IC50 of 10 to 40 µM.

`Nc1nccc2cc(CNC(=O)c3cc(Cl)c(COCCCN4CCOCC4)s3)ccc12` [Example 7.25] registered an IC50 of 3 to 10 µM.

In turn, `CN(C)CCCCOCc1sc(C(=O)NCc2ccc3c(N)nccc3c2)cc1Cl` [Example 7.26, N-((1-Aminoisoquinolin-6-yl)methyl)-4-chloro-5-((4-(dimethylamino)butoxy)methyl)thiophene-2-carboxamide] displayed an IC50 of 1 to 3 µM.

In turn, `Cn1cc(CCCOCc2sc(C(=O)NCc3ccc4c(N)nccc4c3)cc2Cl)cn1` [Example 7.27] yielded an IC50 of 3 to 10 µM.

On to `Nc1nccc2cc(CNC(=O)c3cc(Cl)c(COCCCn4cccn4)s3)ccc12` [Example 7.28], for which the IC50 lay within 10 to 40 µM.

`Nc1nccc2cc(CNC(=O)c3cc(Cl)c(COCCCc4ccccn4)s3)ccc12` [Example 7.29] displayed an IC50 of 10 to 40 µM.

Take `CN(C)c1ccc(COCc2sc(C(=O)NCc3ccc4c(N)nccc4c3)cc2Cl)cc1` [Example 7.30]: the IC50 lay within 10 to 40 µM.

On to `CN(C)CCCOCc1sc(C(=O)NCc2ccc3c(N)nccc3c2)cc1Cl` [Example 7.31], for which the IC50 was in the range of 1 to 3 µM.

`Nc1nccc2cc(CNC(=O)c3cc(Cl)cs3)ccc12` [Example 25.01]: the IC50 was 10 to 40 µM.

`Cc1sc(C(=O)NCc2ccc3c(N)nccc3c2)cc1Br` [Example 25.02] registered an IC50 of 3 to 10 µM.

`Nc1nccc2cc(CNC(=O)c3ccc(Cl)s3)ccc12` [Example 25.03] yielded an IC50 of 10 to 40 µM.

The compound `Cc1sc(C(=O)NCc2ccc3c(N)nccc3c2)cc1Cl` [Example 25.04] gave an IC50 of 3 to 10 µM.
